Laboratory results as given in patent US20100178334A1, “Oral Pharmaceutical Dosage Form Comprising as Active Ingredients a Proton Pump Inhibitor together with Acetyl Salicyclic Acid” (priority 2005, published 2010).

How the values were obtained:
[1] = test system: gastric and/or duodenal ulcers in Helicobacter pylori-negative patients ≧60 years receiving ASA; assay: randomized, multicenter, placebo-controlled trial of esomeprazole 20 mg once daily for 26 weeks in patients receiving ASA; type: in vivo, human
Procedure: Patients were randomized to receive either esomeprazole 20 mg (administered as esomeprazole magnesium, i.e. Nexium® owned by AstraZeneca AB) or placebo once daily for 26 weeks. The primary outcome variable was the presence of gastric and/or duodenal ulcers at endoscopy over the 26-week period. A total of 991 patients, all receiving ASA in doses varying between 75-325 mg/day (57.1% male, mean age 69.3 years, mean acetyl salicylic acid (ASA) dose 124.0 mg/day) were included in the intent-to-treat population. The cumulative proportion of patients without either gastric or duodenal ulcer at 26 weeks was 98.2% with esomeprazole, compared with 93.8% with placebo (life table estimates, p=0.0007). The incidence of gastric ulcers was lower in patients taking esomeprazole than in those taking placebo (1.2% vs. 3.8%), as was the incidence of duodenal ulcers (0.4% and 1.6% for esomeprazole and placebo, respectively). Eight patients (1.6%) had developed an ulcer, in the esomeprazole group by 6 months, compared with 27 patients (5.4%) in the placebo group. This corresponded to a relative reduction of developing an ulcer of 70% when taking esomeprazole rather than placebo. A total of 95.6% of patients treated with esomeprazole had no esophageal lesions at week 26, compared with 81.7% of patients treated with placebo (p<0.0001).

[2] = test system: ulcer complication like bleeding from the stomach or the duodenum; conditions: cited from earlier work
[3] = test system: damages on the mucosa caused by ASA; conditions: concomitant administration for patients treated with ASA; cited from earlier work
[4] = esomeprazole 20 mg once daily, 26 weeks, patients on ASA

COc1ccc2nc([S@@+]([O-])Cc3ncc(C)c(OC)c3C)[nH]c2c1 [esomeprazole]
resolution of investigator-assessed upper gastrointestinal symptoms ([1]; all symptoms, versus placebo): higher with esomeprazole than with placebo
relative reduction of developing an ulcer when taking esomeprazole rather than placebo ([1]; by 6 months, versus placebo): 70%
safety and tolerability ([1]; esomeprazole 20 mg once daily for 26 weeks): safe and well tolerated
incidence of duodenal ulcers [1, 4]: 0.4%
incidence of gastric ulcers [1, 4]: 1.2%
patients who had developed an ulcer by 6 months ([1]; esomeprazole 20 mg once daily, patients on ASA, eight patients): 1.6%
proportion of patients without esophageal lesions at 6 months ([1]; patients with no lesions and those with Los Angeles grade A lesions at baseline, versus placebo): higher with esomeprazole than with placebo

CC(=O)Oc1ccccc1C(=O)O [ASA, acetyl salicylic acid]
relative risk of developing an ulcer complication like bleeding from the stomach or the duodenum ([2]; daily dose as low as 75 mg (Weil et al)): doubles
hospital admissions due to adverse drug reactions caused by ASA ([2]; epidemiological data from the UK (Pirmohamed et al)): 18%

Cc1c(OCC(F)(F)F)ccnc1C[S+]([O-])c1nc2ccccc2[nH]1 (stereo not shown) [lansoprazole]
effect on damages on the mucosa caused by ASA [3]: reduce damages on the mucosa caused by ASA
